In patent US20220323406A1, “METHODS AND COMPOSITIONS FOR DIFFERENTIATING STEM CELLS” (Massachusetts Institute of Technology, priority 2019, published 2022):

Legend:
[1] = test system: ENR+CD organoids (ISC to Paneth cell differentiation); assay: Primary screen: basal (non-stimulated) lysozyme secretion LYZ.NS, 2.5-D 384-well ENR+CD organoid differentiation; type: cell-based, mouse
Text: (§1) High-throughput screening.

[2] = test system: ENR+CD organoids (ISC to Paneth cell differentiation); assay: Primary screen: CCh-stimulated lysozyme secretion LYZ.S, 2.5-D 384-well ENR+CD organoid differentiation; type: cell-based, mouse; details: primary screen
Text: as §1

[3] = test system: ENR+CD organoids; assay: Primary screen: ATP (CellTiter-Glo 3D, CTG) cell number/viability, 2.5-D 384-well ENR+CD organoids; details: primary screen;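 also: compounds given at plating and again on day 3 over a 6-day differentiation from ENR+CV stem-cell-enriched precursors, ATP measured on day 6, plate median as control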
[4] = dose 0.08 uM, FC vs plate median
[5] = dose 0.40 uM, FC vs plate median
[6] = dose 2.00 uM, FC vs plate median
[7] = dose 10.00 uM, FC vs plate median

C[C@@H]1COCCN1c1cc(C2(S(C)(=O)=O)CC2)nc(-c2cccc3[nH]ccc23)n1 [AZ20]
Dose.FC.LYZ.NS ([1]; primary screen, dose 0.08 uM): 0.042 log2 fold change | Z.LYZ.NS (standard z score) ([1]; primary screen, dose 0.08 uM): 0.365 | Dose.FC.LYZ.NS ([1]; primary screen, dose 0.40 uM): −0.140 log2 fold change | Z.LYZ.NS (standard z score) ([1]; primary screen, dose 0.40 uM): −1.222 | Dose.FC.LYZ.NS ([1]; primary screen, dose 2.00 uM): −0.215 log2 fold change | Z.LYZ.NS (standard z score) ([1]; primary screen, dose 2.00 uM): −1.868 | Dose.FC.LYZ.NS ([1]; primary screen, dose 10.00 uM): −0.261 log2 fold change | Z.LYZ.NS (standard z score) ([1]; primary screen, dose 10.00 uM): −2.271 | Dose.FC.LYZ.S ([2]; dose 0.08 uM): −0.038 log2 fold change | Dose.FC.LYZ.S ([2]; dose 0.40 uM): −0.236 log2 fold change | Dose.FC.LYZ.S ([2]; dose 2.00 uM): −0.373 log2 fold change | Dose.FC.LYZ.S ([2]; dose 10.00 uM): −0.329 log2 fold change | Dose.FC.CTG ([3]; dose 0.08 uM): −0.210 log2 fold change | Z.CTG (standard z score) ([3]; dose 0.08 uM): −0.500 | Dose.FC.CTG ([3]; dose 0.40 uM): −0.218 log2 fold change | Z.CTG (standard z score) ([3]; dose 0.40 uM): −0.521 | Dose.FC.CTG ([3]; dose 2.00 uM): −1.054 log2 fold change | Z.CTG (standard z score) ([3]; dose 2.00 uM): −2.519 | Dose.FC.CTG ([3]; dose 10.00 uM): −0.573 log2 fold change | Z.CTG (standard z score) ([3]; dose 10.00 uM): −1.368

O=C(O)/C=C/c1ccc(Cn2ccnc2)cc1 [Ozagrel]
Z.LYZ.NS ([1]; primary screen, dose 0.08 uM, standard z score): 0.645 | Z.LYZ.NS ([1]; primary screen, dose 0.40 uM, standard z score): 0.381 | Z.LYZ.NS ([1]; primary screen, dose 2.00 uM, standard z score): 0.698 | Z.LYZ.NS ([1]; primary screen, dose 10.00 uM, standard z score): −0.068 | Dose.FC.LYZ.NS ([1]; primary screen; dose 0.08 uM; FC vs plate median): 0.074 log2 fold change | Dose.FC.LYZ.NS ([1]; primary screen; dose 0.40 uM; FC vs plate median): 0.044 log2 fold change | Dose.FC.LYZ.NS ([1]; primary screen; dose 2.00 uM; FC vs plate median): 0.080 log2 fold change | Dose.FC.LYZ.NS ([1]; primary screen; dose 10.00 uM; FC vs plate median): −0.008 log2 fold change | Dose.FC.LYZ.S [2, 4]: 0.145 log2 fold change | Dose.FC.LYZ.S [2, 5]: 0.096 log2 fold change | Dose.FC.LYZ.S [2, 6]: 0.104 log2 fold change | Dose.FC.LYZ.S [2, 7]: 0.011 log2 fold change | Dose.FC.CTG [3, 4]: 0.055 log2 fold change | Dose.FC.CTG [3, 5]: 0.224 log2 fold change | Dose.FC.CTG [3, 6]: −0.063 log2 fold change | Dose.FC.CTG [3, 7]: 0.113 log2 fold change

CCCCCCCCCCCC1=C(O)C(=O)C=C(O)C1=O [Embelin]
Dose.FC.LYZ.NS ([1]; primary screen, dose 0.08 uM): −0.015 log2 fold change | Dose.FC.LYZ.NS ([1]; primary screen, dose 0.40 uM): −0.082 log2 fold change | Dose.FC.LYZ.NS ([1]; primary screen, dose 2.00 uM): −0.055 log2 fold change | Dose.FC.LYZ.NS ([1]; primary screen, dose 10.00 uM): −0.094 log2 fold change | Z.LYZ.NS ([1]; primary screen, standard z score, dose 0.08 uM): −0.129 | Z.LYZ.NS ([1]; primary screen, standard z score, dose 0.40 uM): −0.712 | Z.LYZ.NS ([1]; primary screen, standard z score, dose 2.00 uM): −0.482 | Z.LYZ.NS ([1]; primary screen, standard z score, dose 10.00 uM): −0.819 | Dose.FC.LYZ.S ([2]; dose 0.08 uM): −0.034 log2 fold change | Dose.FC.LYZ.S ([2]; dose 0.40 uM): −0.122 log2 fold change | Dose.FC.LYZ.S ([2]; dose 2.00 uM): −0.111 log2 fold change | Dose.FC.LYZ.S ([2]; dose 10.00 uM): −0.119 log2 fold change | Dose.FC.CTG ([3]; dose 0.08 uM): −0.323 log2 fold change | Dose.FC.CTG ([3]; dose 0.40 uM): −0.723 log2 fold change | Dose.FC.CTG ([3]; dose 2.00 uM): −0.325 log2 fold change | Dose.FC.CTG ([3]; dose 10.00 uM): −0.720 log2 fold change

Oc1nc(-c2ccc(C(F)(F)F)cc2)nc2c1CSCC2 [XAV-939]
Dose.FC.LYZ.NS ([1]; primary screen, dose 0.08 uM): 0.058 log2 fold change | Z.LYZ.NS (standard z score) ([1]; primary screen, dose 0.08 uM): 0.505 | Dose.FC.LYZ.NS ([1]; primary screen, dose 0.40 uM): 0.020 log2 fold change | Z.LYZ.NS (standard z score) ([1]; primary screen, dose 0.40 uM): 0.177 | Dose.FC.LYZ.NS ([1]; primary screen, dose 2.00 uM): −0.044 log2 fold change | Z.LYZ.NS (standard z score) ([1]; primary screen, dose 2.00 uM): −0.386 | Dose.FC.LYZ.NS ([1]; primary screen, dose 10.00 uM): −0.131 log2 fold change | Z.LYZ.NS (standard z score) ([1]; primary screen, dose 10.00 uM): −1.142 | Dose.FC.LYZ.S ([2]; dose 0.08 uM): 0.074 log2 fold change | Dose.FC.LYZ.S ([2]; dose 0.40 uM): 0.085 log2 fold change | Dose.FC.LYZ.S ([2]; dose 2.00 uM): −0.068 log2 fold change | Dose.FC.LYZ.S ([2]; dose 10.00 uM): −0.231 log2 fold change | Dose.FC.CTG ([3]; dose 0.08 uM): −0.332 log2 fold change | Dose.FC.CTG ([3]; dose 0.40 uM): −0.027 log2 fold change | Dose.FC.CTG ([3]; dose 2.00 uM): −0.355 log2 fold change | Dose.FC.CTG ([3]; dose 10.00 uM): −0.899 log2 fold change

Nc1cccc2c1CN(C1CCC(=O)NC1=O)C2=O (stereo not shown) [Lenalidomide (CC-5013)]
Dose.FC.LYZ.NS (log2 fold change) ([1]; primary screen, dose 0.08 uM): 0.147 | Z.LYZ.NS (standard z score) ([1]; primary screen, dose 0.08 uM): 1.283 | Dose.FC.LYZ.NS (log2 fold change) ([1]; primary screen, dose 0.40 uM): 0.099 | Z.LYZ.NS (standard z score) ([1]; primary screen, dose 0.40 uM): 0.863 | Dose.FC.LYZ.NS (log2 fold change) ([1]; primary screen, dose 2.00 uM): 0.071 | Z.LYZ.NS (standard z score) ([1]; primary screen, dose 2.00 uM): 0.615 | Dose.FC.LYZ.NS (log2 fold change) ([1]; primary screen, dose 10.00 uM): −0.041 | Z.LYZ.NS (standard z score) ([1]; primary screen, dose 10.00 uM): −0.360 | Dose.FC.LYZ.S (log2 fold change) ([2]; dose 0.08 uM): 0.099 | Dose.FC.LYZ.S (log2 fold change) ([2]; dose 0.40 uM): 0.176 | Dose.FC.LYZ.S (log2 fold change) ([2]; dose 2.00 uM): 0.025 | Dose.FC.LYZ.S (log2 fold change) ([2]; dose 10.00 uM): −0.045 | Dose.FC.CTG (log2 fold change) ([3]; dose 0.08 uM): 0.046 | Z.CTG (standard z score) ([3]; dose 0.08 uM): 0.110 | Dose.FC.CTG (log2 fold change) ([3]; dose 0.40 uM): −0.016 | Z.CTG (standard z score) ([3]; dose 0.40 uM): −0.037 | Dose.FC.CTG (log2 fold change) ([3]; dose 2.00 uM): −0.250 | Z.CTG (standard z score) ([3]; dose 2.00 uM): −0.596 | Dose.FC.CTG (log2 fold change) ([3]; dose 10.00 uM): −0.316 | Z.CTG (standard z score) ([3]; dose 10.00 uM): −0.754
